The supplement of paper PMC11061612

Key:
Assay in all cases: Bliss excess, mean over the matrix (fraction); higher = more synergy
[1] = test system: DMS-53 (Small Cell Lung Carcinoma)
Summary of the method: (§1)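 After 24 hours at 37°C and 5% CO2 in 1536-well plates, cells in DMEM/F12 or RPMI plus 10% FBS received two-drug dose matrices for 72 hours. Viability came from CellTiter-Glo 2.0 luminescence and was scaled as inhibition, anchored at 0 by vehicle wells and at 1 by blank wells. Combination Emax is taken as the second-highest inhibition in the matrix, and Bliss excess as the observed combination effect less EA + EB − EA·EB, with EA and EB the single-agent effects.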

PEO1 (Ovarian Carcinoma) = test system: PEO1 (Ovarian Carcinoma)
Summary of the method: as §1

[2] = test system: GCT (Other Solid Carcinomas)
Summary of the method: as §1

COLO-792 (Melanoma) = test system: COLO-792 (Melanoma)
Summary of the method: as §1

AU565 (Breast Carcinoma) = test system: AU565 (Breast Carcinoma)
Summary of the method: as §1

[3] = test system: CGTH-W-1 (Thyroid Gland Carcinoma)
Summary of the method: as §1

[4] = test system: JHU-022 (Oral Cavity Carcinoma)
Summary of the method: as §1

5637 (Bladder Carcinoma) = test system: 5637 (Bladder Carcinoma)
Summary of the method: as §1

[5] = test system: JVM-2 (B-Cell Non-Hodgkin's Lymphoma)
Summary of the method: as §1

[6] = test system: SK-HEP-1 (Hepatocellular Carcinoma)
Summary of the method: as §1

[7] = test system: SW620 (Colorectal Carcinoma)
Summary of the method: as §1

NB13 (Neuroblastoma) = test system: NB13 (Neuroblastoma)
Summary of the method: as §1

[8] = test system: GA-10 (Burkitt's Lymphoma)
Summary of the method: as §1

A101D (Melanoma) = test system: A101D (Melanoma)
Summary of the method: as §1

[9] = test system: A253 (Head and Neck Carcinoma)
Summary of the method: as §1

[10] = test system: NCI-H2087 (Lung Adenocarcinoma)
Summary of the method: as §1

[11] = test system: 22RV1 (Prostate Carcinoma)
Summary of the method: as §1

[12] = test system: HT55 (Colorectal Carcinoma)
Summary of the method: as §1

[13] = test system: HCC1395 (Breast Carcinoma)
Summary of the method: as §1

[14] = test system: CESS (Acute Myeloid Leukemia)
Summary of the method: as §1

Compound | Bliss excess [1] | Bliss excess (PEO1 (Ovarian Carcinoma)) | Bliss excess [2] | Bliss excess (COLO-792 (Melanoma)) | Bliss excess (AU565 (Breast Carcinoma)) | Bliss excess [3] | Bliss excess [4] | Bliss excess (5637 (Bladder Carcinoma)) | Bliss excess [5] | Bliss excess [6] | Bliss excess [7] | Bliss excess (NB13 (Neuroblastoma)) | Bliss excess [8] | Bliss excess (A101D (Melanoma)) | Bliss excess [9] | Bliss excess [10] | Bliss excess [11] | Bliss excess [12] | Bliss excess [13] | Bliss excess [14]
C[C@@H]1COCCN1c1cc(C2([S@](C)(=N)=O)CC2)nc(-c2ccnc3[nH]ccc23)n1 [AZD6738] + O=C(c1cc(Cc2n[nH]c(=O)c3ccccc23)ccc1F)N1CCN(C(=O)C2CC2)CC1 [Olaparib] (first compound max 10 µM, 7x7, partner max 10 µM) | -0.002 | 0.0069 | -0.0027 | 0.0322 | 0.005 | 0.0176 | -0.0489 | -0.0011 | -0.0708 | 0.0248 | 0.0218 | 0.0511 | -0.0726 | -0.0004 | 0.0371 | -0.0008 | 0.0117 | 0.0204 | 0.0255 | 0.0222
NC1(C(=O)N[C@@H](CCO)c2ccc(Cl)cc2)CCN(c2ncnc3[nH]ccc23)CC1 [Capivasertib] + CC(=O)c1c(C)c2cnc(Nc3ccc(N4CCNCC4)cn3)nc2n(C2CCCC2)c1=O [Palbociclib] (first compound max 10 µM, 7x7, partner max 10 µM) | 0.0477 | -0.0509 | -0.0569 | -0.0643 | 0.0521 | 0.0111 | -0.0186 | -0.0521 | -0.036 | -0.109 | -0.019 | -0.076 | -0.0029 | 0.0157 | -0.0709 | -0.03 | 0.0306 | -0.0186 | 0.0116 | -0.0306
NC1(C(=O)N[C@@H](CCO)c2ccc(Cl)cc2)CCN(c2ncnc3[nH]ccc23)CC1 [Capivasertib] + CC(C)n1c(=O)n(C)c2cnc3cc(F)c(-c4ccc(OCCCN5CCCCC5)nc4)cc3c21 [AZD1390] (first compound max 10 µM, 7x7, partner max 0.3 µM) | 0.0083 | -0.0601 | -0.0509 | -0.0755 | -0.025 | -0.0273 | -0.0564 | -0.052 | -0.0662 | -0.0321 | -0.0529 | -0.0584 | -0.028 | -0.118 | -0.0597 | -0.0378 | -0.0886 | -0.0432 | 0.0154 | -0.0835
NC1(C(=O)N[C@@H](CCO)c2ccc(Cl)cc2)CCN(c2ncnc3[nH]ccc23)CC1 [Capivasertib] + CCN(CCO)CCCOc1ccc2c(Nc3cc(CC(=O)Nc4cccc(F)c4)[nH]n3)ncnc2c1 [AZD2811] (first compound max 10 µM, 7x7, partner max 1 µM) | 0.0225 | -0.0134 | -0.0017 | 0.0486 | -0.0229 | 0.0234 | -0.0261 | -0.101 | -0.142 | -0.0553 | -0.029 | -0.007 | -0.111 | -0.0282 | -0.0346 | -0.0243 | -0.0373 | -0.0412 | 0.001 | 0.0217
NC1(C(=O)N[C@@H](CCO)c2ccc(Cl)cc2)CCN(c2ncnc3[nH]ccc23)CC1 [Capivasertib] + COc1nnc2ccc(N3CCC(c4ccc(OCCN5CCN(C)C(=O)[C@H]5C)cc4)CC3)nn12 [AZD5153] (first compound max 10 µM, 7x7, partner max 1 µM) | -0.0195 | 0.0529 | 0.0049 | 0.133 | 0.0693 | 0.0068 | 0.0019 | 0.0035 | -0.0764 | -0.0784 | 0.0026 | 0.0532 | -0.0148 | 0.0062 | 0.125 | 0.0179 | 0.0032 | -0.0408 | -0.0381 | 0.0506
NC1(C(=O)N[C@@H](CCO)c2ccc(Cl)cc2)CCN(c2ncnc3[nH]ccc23)CC1 [Capivasertib] + C[C@@H]1COCCN1C2=NC(=NC(=C2)C3(CC3)[S@](=N)(=O)C)C4=C5C=CNC5=NC=C4 [AZD6738] (first compound max 10 µM, 7x7, partner max 10 µM) | -0.0279 | -0.0225 | -0.0719 | 0.0487 | -0.0126 | -0.0508 | -0.041 | -0.0846 | -0.0607 | -0.0744 | -0.0475 | -0.0823 | -0.0303 | -0.107 | -0.0163 | -0.0071 | -0.0527 | -0.0531 | -0.0687 | 0.0044
NC1(C(=O)N[C@@H](CCO)c2ccc(Cl)cc2)CCN(c2ncnc3[nH]ccc23)CC1 [Capivasertib] + Cn1cnc2c(F)c(Nc3ccc(Br)cc3Cl)c(C(=O)NOCCO)cc21 [Selumetinib] (first compound max 10 µM, 7x7, partner max 10 µM) | 0.0155 | -0.0358 | -0.0354 | 0.0139 | 0.0183 | 0.0262 | -0.0397 | -0.0187 | 0.0533 | -0.0083 | 0.0186 | -0.0062 | -0.0442 | 0.0628 | 0.0591 | 0.016 | -0.0044 | -0.0042 | 0.033 | -0.0147
COc1cccc2c1C(=O)c1c(O)c3c(c(O)c1C2=O)C[C@@](O)(C(=O)CO)C[C@@H]3O[C@H]1C[C@H](N)[C@H](O)[C@H](C)O1 [Doxorubicin] + Cc1cc2ncnn2cc1Nc1ncc2c(n1)n(C1CCOCC1)c(=O)n2C [AZD7648] (first compound max 1 µM, 7x7, partner max 10 µM) | 0.0197 | -0.0214 | 0.0589 | -0.0081 | 0.0753 | 0.0333 | -0.0307 | 0.0902 | 0.071 | 0.0292 | 0.0335 | 0.0808 | 0.0964 | 0.0232 | 0.108 | 0.0107 | -0.0351 | 0.0622 | -0.0234 | 0.11
CS(=O)(=O)CCNCc1ccc(-c2ccc3ncnc(Nc4ccc(OCc5cccc(F)c5)c(Cl)c4)c3c2)o1 [Lapatinib] + C[C@@H](Oc1cc(-c2cnn(C3CCNCC3)c2)cnc1N)c1c(Cl)ccc(F)c1Cl [Crizotinib] (first compound max 10 µM, 7x7, partner max 10 µM) | -0.0205 | -0.0422 | -0.0251 | -0.0237 | -0.0287 | -0.0294 | -0.0541 | -0.0285 | -0.0131 | -0.0259 | -0.0736 | -0.0778 | -0.0218 | -0.0587 | -0.0221 | -0.0499 | -0.108 | -0.0412 | -0.0724 | -0.0826
CC(=O)c1c(C)c2cnc(Nc3ccc(N4CCNCC4)cn3)nc2n(C2CCCC2)c1=O [Palbociclib] + CC1(C)CCC(CN2CCN(c3ccc(C(=O)NS(=O)(=O)c4ccc(NCC5CCOCC5)c([N+](=O)[O-])c4)c(Oc4cnc5[nH]ccc5c4)c3)CC2)=C(c2ccc(Cl)cc2)C1 [Venetoclax] (first compound max 10 µM, 7x7, partner max 1 µM) | 0.0325 | -0.0062 | 0.0353 | 0.0153 | 0.0161 | -0.0219 | -0.0613 | -0.0149 | -0.0273 | -0.167 | -0.0248 | -0.103 | -0.0895 | -0.0025 | -0.0555 | -0.0596 | -0.0571 | 0.0107 | -0.0472 | -0.0272
CC(=O)c1c(C)c2cnc(Nc3ccc(N4CCNCC4)cn3)nc2n(C2CCCC2)c1=O [Palbociclib] + Cc1c2c(nn1C)CSCc1cc(n(C)n1)CSc1cc(c3ccccc3c1)OCCCc1c(C(=O)O)n(C)c3c-2c(Cl)ccc13 [AZD5991] (first compound max 10 µM, 7x7, partner max 1 µM) | 0.044 | -0.0483 | -0.049 | -0.105 | -0.0211 | -0.0037 | -0.0971 | -0.0342 | -0.0206 | 0.0434 | -0.0292 | 0.0041 | -0.0211 | -0.0091 | -0.134 | -0.0561 | -0.0781 | 0.0046 | -0.0403 | -0.0341
CC(=O)c1c(C)c2cnc(Nc3ccc(N4CCNCC4)cn3)nc2n(C2CCCC2)c1=O [Palbociclib] + Cn1cnc2c(F)c(Nc3ccc(Br)cc3Cl)c(C(=O)NOCCO)cc21 [Selumetinib] (first compound max 10 µM, 7x7, partner max 10 µM) | -0.0207 | -0.0055 | -0.0369 | -0.0127 | 0.0052 | -0.036 | 0.0858 | -0.0288 | 0.0271 | -0.114 | 0.0191 | -0.0391 | -0.0193 | -0.0907 | -0.0864 | -0.0101 | 0.0328 | 0.0782 | -0.0529 | 0.0202
COc1cccc(OCCCN)c1-c1cc(Nc2cnc(C#N)cn2)n[nH]1 [Prexasertib] + C=CCn1c(=O)c2cnc(Nc3ccc(N4CCN(C)CC4)cc3)nc2n1-c1cccc(C(C)(C)O)n1 [AZD1775] (first compound max 1 µM, partner max 1 µM) | 0.0883 | 0.0825 | 0.0294 | 0.0236 | 0.0991 | 0.0632 | 0.0861 | 0.0167 | -0.0174 | 0.0775 | 0.0478 | -0.0347 | 0.0653 | 0.0932 | 0.0877 | 0.0576 | 0.06 | 0.0259 | 0.0111 | -0.0059
